According to patent publication US8846698B2, “Pyrrolo[2,3-d]pyrimidine tropomysin-related kinase inhibitors” (Pfizer Limited, priority 2011, dated 2014):

Molecular target: TRKA (Homo sapiens (Human), UniProt P04629)
Test: Isolated TRK enzyme assay (HTRF KinEASE-TK), TRKA
Type: biochemical
Details: read-out: Trka enzyme (IC50)

Sequence of TRKA (P04629 441-796): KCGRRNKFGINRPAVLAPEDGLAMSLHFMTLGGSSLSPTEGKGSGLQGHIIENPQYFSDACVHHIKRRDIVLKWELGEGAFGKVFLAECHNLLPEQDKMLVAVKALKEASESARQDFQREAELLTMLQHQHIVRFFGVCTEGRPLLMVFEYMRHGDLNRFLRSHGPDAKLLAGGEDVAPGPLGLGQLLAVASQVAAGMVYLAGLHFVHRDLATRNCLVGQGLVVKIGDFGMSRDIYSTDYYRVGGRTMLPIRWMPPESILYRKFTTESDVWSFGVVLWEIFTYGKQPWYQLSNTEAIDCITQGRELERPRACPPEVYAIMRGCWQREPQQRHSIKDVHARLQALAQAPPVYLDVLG

| SMILES | IC50 [µM] |
| --- | --- |
| CC(C)n1ncc(CC(=O)Nc2cncc(C(=O)c3cn(C(C)(C)CO)c4nc(N)ncc34)c2)c1C(F)(F)F [Example 260, N-(5-{[2-amino-7-(2-hydroxy-1,1-dimethylethyl)-7H-pyrrolo[2,3-d]pyrimidin-5-yl]carbonyl}pyridin-3-yl)-2-[1-isopropyl-5-(trifluoromethyl)-1H-pyrazol-4-yl]acetamide] | 0.0168 |
| CC(C)n1cc(C(=O)c2cncc(NC(=O)Cc3ccccc3OC3CC3)c2)c2cncnc21 [Example 70, 2-[2-(cyclopropyloxy)phenyl]-N-{5-[(7-isopropyl-7H-pyrrolo[2,3-d]pyrimidin-5-yl)carbonyl]pyridin-3-yl}acetamide] | 0.0228 |
| CC(C)n1cc(C(=O)c2cncc(NC(=O)c3ccn4cncc4c3)c2)c2cncnc21 [Example 406, Imidazo[1,5-a]pyridine-7-carboxylicacid [5-(7-isopropyl-7H-pyrrolo[2,3-d]pyrimidine-5-carbonyl)-pyridin-3-yl]-amide] | 2.64 |
| CN(c1ccc(CC(=O)Nc2cncc(C(=O)c3cn(C(C)(C)CO)c4nc(N)ncc34)c2)cc1)S(C)(=O)=O [Example 557, N-(5-{[2-amino-7-(2-hydroxy-1,1-dimethylethyl)-7H-pyrrolo[2,3-d]pyrimidin-5-yl]carbonyl}pyridin-3-yl)-2-{4-[methyl(methylsulfonyl)amino]phenyl}-acetamide] | 0.00947 |
| CC(CO)n1cc(C(=O)c2cncc(NC(=O)Cc3ccc(C#N)cc3)c2)c2cnc(N)nc21 (single isomer, unassigned) [Example 214, N-(5-{[2-amino-7-(2-hydroxy-1-methylethyl)-7H-pyrrolo[2,3-d]pyrimidin-5-yl]carbonyl}pyridin-3-yl)-2-(4-cyanophenyl)acetamide] | 0.0659 |
| CC(C)(CO)n1cc(C(=O)c2cncc(NC(=O)Cc3cccc(C(F)(F)F)c3)c2)c2cncnc21 [Example 226, N-(5-{[7-(2-hydroxy-1,1-dimethylethyl)-7H-pyrrolo[2,3-d]pyrimidin-5-yl]carbonyl}pyridin-3-yl)-2-[3-(trifluoromethyl)phenyl]acetamide] | 0.00361 |
| CC(C)c1cn(CC(=O)Nc2cncc(C(=O)c3cn(C(C)C)c4ncncc34)c2)nn1 [Example 105, N-{5-[(7-isopropyl-7H-pyrrolo[2,3-d]pyrimidin-5-yl)carbonyl]pyridin-3-yl}-2-(4-isopropyl-1H-1,2,3-triazol-1-yl)acetamide] | 0.0256 |
| CC(C)(CO)n1cc(C(=O)c2cncc(NC(=O)Cn3cc(C4CC4)cn3)c2)c2cnc(N)nc21 [Example 576, N-{5-[2-Amino-7-(2-hydroxy-1,1-dimethyl-ethyl)-7H-pyrrolo[2,3-d]pyrimidine-5-carbonyl]-pyridin-3-yl}-2-(4-cyclopropyl-pyrazol-1-yl)-acetamide] | 0.296 |
| CC(C)(CO)n1cc(C(=O)c2cncc(NC(=O)Cc3ccc(OC(F)F)cc3)c2)c2cnc(N)nc21 [Example 565, N-{5-[2-Amino-7-(2-hydroxy-1,1-dimethyl-ethyl)-7H-pyrrolo[2,3-d]pyrimidine-5-carbonyl]-pyridin-3-yl}-2-(4-difluoromethoxy-phenyl)-acetamide] | 0.0179 |
| CC(C)n1cc(C(=O)c2cncc(NC(=O)c3cc4cscc4cn3)c2)c2cncnc21 [Example 478, Thieno[3,4-c]pyridine-6-carboxylic acid [5-(7-isopropyl-7H-pyrrolo[2,3-d]pyrimidine-5-carbonyl)-pyridin-3-yl]-amide] | 0.587 |
| Cn1cc(C(=O)c2cncc(NC(=O)Cc3ccc(F)cc3F)c2)c2cncnc21 [Example 191, 2-(2,4-difluorophenyl)-N-{5-[(7-methyl-7H-pyrrolo[2,3-d]pyrimidin-5-yl)carbonyl]pyridin-3-yl}acetamide] | 0.873 |
| C[C@H](CO)n1cc(C(=O)c2cncc(NC(=O)Cc3cccc(S(C)(=O)=O)c3)c2)c2cncnc21 [Example 209, N-[5-({7-[(1R)-2-hydroxy-1-methylethyl]-7H-pyrrolo[2,3-d]pyrimidin-5-yl}carbonyl)pyridin-3-yl]-2-[3-(methylsulfonyl)phenyl]acetamide] | 0.272 |
| Cc1ccn2cc(CC(=O)Nc3cncc(C(=O)c4cn(C(C)C)c5ncncc45)c3)nc2n1 [Example 121, N-{5-[(7-isopropyl-7H-pyrrolo[2,3-d]pyrimidin-5-yl)carbonyl]pyridin-3-yl}-2-(7-methylimidazo[1,2-a]pyrimidin-2-yl)acetamide] | 5.2 |
| CC(C)n1cc(C(=O)c2cncc(NC(=O)C(CO)c3ccccc3)c2)c2cncnc21 (centres unmarked) [Example 339, 3-hydroxy-2-phenyl-N-(5-{[7-(propan-2-yl)-7H-pyrrolo[2,3-d]pyrimidin-5-yl]carbonyl}pyridin-3-yl)propanamide] | 0.251 |
| Cn1cc(C(=O)c2cncc(NC(=O)Cc3c(F)cccc3F)c2)c2cncnc21 [Example 193, 2-(2,6-difluorophenyl)-N-{5-[(7-methyl-7H-pyrrolo[2,3-d]pyrimidin-5-yl)carbonyl]pyridin-3-yl}acetamide] | 3.57 |
| CC(C)n1cc(C(=O)c2cncc(NC(=O)Cn3nnc4cc(Cl)ccc43)c2)c2cncnc21 [Example 119, 2-(5-chloro-1H-benzotriazol-1-yl)-N-{5-[(7-isopropyl-7H-pyrrolo[2,3-d]pyrimidin-5-yl)carbonyl]pyridin-3-yl}acetamide] | 0.233 |
| CC(CO)n1cc(C(=O)c2cncc(NC(=O)Cc3ccc4cccnc4c3)c2)c2cnc(N)nc21 (single isomer, unassigned) [Example 211, N-(5-{[2-amino-7-(2-hydroxy-1-methylethyl)-7H-pyrrolo[2,3-d]pyrimidin-5-yl]carbonyl}pyridin-3-yl)-2-quinolin-7-ylacetamide] | 0.0349 |
| CC(C)n1cc(C(=O)c2cncc(NC(=O)c3cn(C)cn3)c2)c2cncnc21 [Example 465, 1-Methyl-1H-imidazole-4-carboxylic acid [5-(7-isopropyl-7H-pyrrolo[2,3-d]pyrimidine-5-carbonyl)-pyridin-3-yl]-amide] | 2.13 |
| COc1ccc2ncc(C(=O)Nc3cncc(C(=O)c4cn(C(C)C)c5ncncc45)c3)cc2c1 [Example 449, 6-Methoxy-quinoline-3-carboxylic acid [5-(7-isopropyl-7H-pyrrolo[2,3-d]pyrimidine-5-carbonyl)-pyridin-3-yl]-amide] | 0.155 |
| CC(C)(CO)n1cc(C(=O)c2cncc(NC(=O)Cc3ncc(Cl)cn3)c2)c2cnc(N)nc21 [Example 569, N-{5-[2-Amino-7-(2-hydroxy-1,1-dimethyl-ethyl)-7H-pyrrolo[2,3-d]pyrimidine-5-carbonyl]-pyridin-3-yl}-2-(5-chloro-pyrimidin-2-yl)-acetamide] | 0.0344 |
| C[C@@H](CO)n1cc(C(=O)c2cncc(NC(=O)Cc3ccc(F)c(F)c3)c2)c2cncnc21 [Example 535, 2-(3,4-Difluoro-phenyl)-N-{5-[7-((S)-2-hydroxy-1-methyl-ethyl)-7H-pyrrolo[2,3-d]pyrimidine-5-carbonyl]-pyridin-3-yl}-acetamide] | 0.0512 |
| CC(CO)(CO)n1cc(C(=O)c2cncc(NC(=O)Cc3ccc(C#N)c(C(F)(F)F)c3)c2)c2cncnc21 [Example 261] | 0.128 |
| CC(C)n1cc(C(=O)c2cncc(NC(=O)c3ncc4ccccn34)c2)c2cncnc21 [Example 417, Imidazo[1,5-a]pyridine-3-carboxylicacid [5-(7-isopropyl-7H-pyrrolo[2,3-d]pyrimidine-5-carbonyl)-pyridin-3-yl]-amide] | 0.0712 |
